Measurements: patent publication US20220411381A1, “PYRIMIDINEDIONE DERIVATIVES” (Bayer Aktiengesellschaft, priority 2019, published 2022)
Like-named read-outs stand apart in the source and are kept apart here.

Experiments:
[1] = molecular target: T1, recombinant human BCAT1 enzyme (Homo sapiens, UniProt P54687); test: In vitro assay 1a: BCAT1 biochemical assay (coupled LeuDH/NADH fluorescence readout); settings: read-out: BCAT1 IC50
T1 construct: purchased ATGen (South Korea) ATGP1479
T1 sequence (P54687 1-386): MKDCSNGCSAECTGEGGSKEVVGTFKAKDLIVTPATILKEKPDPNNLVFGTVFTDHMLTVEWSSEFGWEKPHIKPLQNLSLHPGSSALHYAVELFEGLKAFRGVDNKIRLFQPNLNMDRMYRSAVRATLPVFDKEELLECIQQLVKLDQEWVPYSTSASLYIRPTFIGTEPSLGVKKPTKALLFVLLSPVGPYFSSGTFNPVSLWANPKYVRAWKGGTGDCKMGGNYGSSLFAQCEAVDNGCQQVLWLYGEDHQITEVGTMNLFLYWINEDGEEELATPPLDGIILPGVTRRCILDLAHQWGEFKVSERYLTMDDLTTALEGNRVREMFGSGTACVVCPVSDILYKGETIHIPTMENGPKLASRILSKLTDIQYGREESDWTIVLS
Procedure: (§1) In Vitro Assay 1a and 1b: BCAT1 and BCAT2 Biochemical Assay
(§2) BOAT (Branched chain amino acid transferase) catalyzes transamination of the branched chain amino acid leucine to α-ketoisocaproate (KIC). The BOAT enzymatic reaction was measured in a coupled readout with leucine dehydrogenase (LeuDH) which catalyzes the Nicotinamide adenine dinucleotide (NADH) dependent reduction of KIC to leucine. NADH consumption is measured by fluorescent readout.
(§3) The biochemical reactions were performed at 32° C. in 384-well plates using a reaction volume of 51 μl and the following assay buffer conditions: 50 mM HEPES (2-[4-(2-hydroxyethyl)piperazin-1-yl]ethanesulfonic acid) pH 8.0, 50 mM aqueous solution of ammonium sulfate, 1 mM ethylenediaminetetraacetic acid, 2 mM dithiothreitol, 0.01% bovine serum albumine, 0.005% Brij 35 detergent, 0.5 μM PLP (pyridoxalphosphate), 10 μM NADH, and 50 μM α-ketoglutarate), and 100 μM leucine. […] Test compounds were used in a concentration range between 0.005 and 30 μM. The final DMSO concentration was 2%.
(§4) The reaction was initiated by addition of substrates (Leucine, α-KG, NADH).

[2] = molecular target: T2, recombinant human BCAT2 enzyme (Homo sapiens, UniProt O15382); test: In vitro assay 1b: BCAT2 biochemical assay (coupled LeuDH/NADH fluorescence readout); settings: recombinant human BCAT2 […], 32° C., 100 μM leucine, 50 μM α-ketoglutarate, NADH fluorescence over 90 min; read-out: BCAT2 IC50; further: recombinant human BCAT2 0.75 nM
T2 construct: purchased ATGen (South Korea) ATGP1523
T2 sequence (O15382 28-392): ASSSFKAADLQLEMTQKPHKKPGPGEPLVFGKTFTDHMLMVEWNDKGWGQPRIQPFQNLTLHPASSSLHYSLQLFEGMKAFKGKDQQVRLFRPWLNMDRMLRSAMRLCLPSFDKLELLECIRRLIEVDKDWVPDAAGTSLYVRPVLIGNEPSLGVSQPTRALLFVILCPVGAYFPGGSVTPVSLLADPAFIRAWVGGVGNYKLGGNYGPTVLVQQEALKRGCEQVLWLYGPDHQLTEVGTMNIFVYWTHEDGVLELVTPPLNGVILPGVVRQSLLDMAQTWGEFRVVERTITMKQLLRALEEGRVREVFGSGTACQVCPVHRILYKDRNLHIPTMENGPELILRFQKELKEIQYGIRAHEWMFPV
Procedure: as §1, §2, §3, §4

[3] = recombinant human BCAT1 […], 32° C., 100 μM leucine, 50 μM α-ketoglutarate, NADH fluorescence over 90 min

Molecule | IC50 [1, 3] | IC50 [2] | IC50 [1]
Cc1ccc(C)c(Oc2cc(-n3c(=O)cc(C(F)(F)F)[nH]c3=O)c(F)cc2C#N)c1C [Example 60, 4-[2,6-Dioxo-4-(trifluoromethyl)-3,6-dihydropyrimidin-1(2H)-yl]-5-fluoro-2-(2,3,6-trimethylphenoxy)benzonitrile] | 7500 nM |  | 
Cc1cc(C)c(Oc2cc(-n3c(=O)cc(C(F)(F)F)[nH]c3=O)c(F)cc2C#N)c(C)c1 [Example 62, 4-[2,6-Dioxo-4-(trifluoromethyl)-3,6-dihydropyrimidin-1 (2H)-yl]-5-fluoro-2-(2,4,6-trimethylphenoxy)benzonitrile] | 2500 nM |  | 
COc1cc(C#N)c(Oc2ccccc2C)cc1-n1c(=O)cc(-c2ccccc2)[nH]c1=O (single isomer, unassigned) [Example 43, 4-(2,6-Dioxo-4-phenyl-3,6-dihydropyrimidin-1(2H)-yl)-5-methoxy-2-(2-methylphenoxy)benzonitrile (atrop 1)] | 5500 nM |  | 
COc1cc(C#N)c(Oc2ccccc2C)cc1-n1c(=O)cc(C(F)(F)Cl)[nH]c1=O (racemic) [Example 25, 4-{4-[Chloro(difluoro)methyl]-2,6-dioxo-3,6-dihydropyrimidin-1(2H)-yl}-5-methoxy-2-(2-methylphenoxy)benzonitrile (rac)] | 200 nM | 1300 nM | 
COc1cc(C#N)c(Oc2ccccc2C)cc1-n1c(=O)cc(C(F)F)[nH]c1=O (racemic) [Example 22, 4-[4-(Difluoromethyl)-2,6-dioxo-3,6-dihydropyrimidin-1(2H)-yl]-5-methoxy-2-(2-methylphenoxy)benzonitrile (rac)] | 150 nM |  | 
COc1cc(C#N)c(Oc2ccccc2C)cc1-n1c(=O)cc(-c2ccccc2)[nH]c1=O (single isomer, unassigned) [Example 44, 4-(2,6-Dioxo-4-phenyl-3,6-dihydropyrimidin-1(2H)-yl)-5-methoxy-2-(2-methylphenoxy)benzonitrile (atrop 2)] | 550 nM | 6500 nM | 
Cc1cccc(Oc2cc(-n3c(=O)cc(C(F)(F)F)[nH]c3=O)c(F)cc2C#N)c1C [Example 67, 2-(2,3-Dimethylphenoxy)-4-[2,6-dioxo-4-(trifluoromethyl)-3,6-dihydropyrimidin-1(2H)-yl]-5-fluorobenzonitrile] | 5100 nM |  | 
Cc1ccccc1Oc1cc(-n2c(=O)cc(C(F)(F)Cl)[nH]c2=O)c(Cl)cc1C#N (racemic) [Example 26, 5-Chloro-4-{4-[chloro(difluoro)methyl]-2,6-dioxo-3,6-dihydropyrimidin-1(2H)-yl}-2-(2-methylphenoxy)benzonitrile (rac)] | 270 nM | 2170 nM | 
Cc1ccccc1Oc1cc(-n2c(=O)cc(C(F)(F)c3ccccc3)[nH]c2=O)c(Cl)cc1C#N (racemic) [Example 53, 5-Chloro-4-{4-[difluoro(phenyl)methyl]-2,6-dioxo-3,6-dihydropyrimidin-1(2H)-yl}-2-(2-methylphenoxy)benzonitrile (rac)] | 750 nM | 1600 nM | 
Cc1ccccc1Oc1cc(-n2c(=O)cc(S(C)(=O)=O)[nH]c2=O)c(F)cc1C#N [Example 75, 5-Fluoro-4-[4-(methanesulfonyl)-2,6-dioxo-3,6-dihydropyrimidin-1(2H)-yl]-2-(2-methylphenoxy)benzonitrile] | 2700 nM | 16000 nM | 
N#Cc1cc(F)c(-n2c(=O)cc(C(F)(F)F)[nH]c2=O)cc1Oc1c(N)cccc1F [Example 64, 2-(2-Amino-6-fluorophenoxy)-4-[2,6-dioxo-4-(trifluoromethyl)-3,6-dihydropyrimidin-1(2H)-yl]-5-fluorobenzonitrile] | 297 nM | 2600 nM | 
Cc1ccccc1Oc1cc(-n2c(=O)cc(C(F)(F)F)[nH]c2=O)c(O)cc1C#N (racemic) [Example 54, 4-[2,6-Dioxo-4-(trifluoromethyl)-3,6-dihydropyrimidin-1(2H)-yl]-5-hydroxy-2-(2-methylphenoxy)benzonitrile (rac)] | 1800 nM | 15500 nM | 
CC(=O)c1cc(C)cc(C)c1Oc1cc(-n2c(=O)cc(C(F)(F)F)[nH]c2=O)c(F)cc1C#N [Example 58, 2-(2-Acetyl-4,6-dimethylphenoxy)-4-[2,6-dioxo-4-(trifluoromethyl)-3,6-dihydropyrimidin-1(2H)-yl]-5-fluorobenzonitrile] | 1800 nM |  | 
COc1cc(C#N)c(Oc2ccccc2C)cc1-n1c(=O)cc(Br)[nH]c1=O (single isomer, unassigned) [Example 21, 4-[4-Bromo-2,6-dioxo-3,6-dihydropyrimidin-1(2H)-yl]-5-methoxy-2-(2-methylphenoxy)benzonitrile (atrop 2)] | 145 nM | 3000 nM | 
Cc1ccc(Oc2cc(-n3c(=O)cc(C(F)(F)F)[nH]c3=O)c(F)cc2C#N)c(C)c1 [Example 66, 2-(2,4-Dimethylphenoxy)-4-[2,6-dioxo-4-(trifluoromethyl)-3,6-dihydropyrimidin-1(2H)-yl]-5-fluorobenzonitrile] | 6700 nM | 49000 nM | 
COc1cc(C#N)c(Oc2ccccc2C)cc1-n1c(=O)cc(S(C)(=O)=O)[nH]c1=O (single isomer, unassigned) [Example 80, 4-[4-(Methanesulfonyl)-2,6-dioxo-3,6-dihydropyrimidin-1(2H)-yl]-5-methoxy-2-(2-methylphenoxy)benzonitrile (atrop 1)] | 300 nM | 2500 nM | 
COc1cc(C#N)c(Oc2ccccc2C)cc1-n1c(=O)cc(C(F)(F)c2ccccc2)[nH]c1=O (racemic) [Example 24, 4-{4-[Difluoro(phenyl)methyl]-2,6-dioxo-3,6-dihydropyrimidin-1(2H)-yl}-5-methoxy-2-(2-methylphenoxy)benzonitrile (rac)] | 145 nM | 600 nM | 
Cc1cccc(C)c1Oc1cc(-n2c(=O)cc(C(F)(F)F)[nH]c2=O)c(Cl)cc1C#N (racemic) [Example 38, 5-Chloro-2-(2,6-dimethylphenoxy)-4-(2,6-dioxo-4-(trifluoromethyl)-2,3-dihydropyrimidin-1(6H)-yl)benzonitrile (rac)] | 283 nM | 1670 nM | 
4-[4-(Methanesulfonyl)-2,6-dioxo-3,6-dihydropyrimidin-1(2H)-yl]-5-methoxy-2-(2-methylphenoxy)benzonitrile (atrop 2) [Example 81] |  |  | 2500 nM
Cc1cc(Cl)cc(C)c1Oc1cc(-n2c(=O)cc(C(F)(F)F)[nH]c2=O)c(F)cc1C#N [Example 61, 2-(4-Chloro-2,6-dimethylphenoxy)-4-[2,6-dioxo-4-(trifluoromethyl)-3,6-dihydropyrimidin-1(2H)-yl]-5-fluorobenzonitrile] | 2500 nM |  | 
COc1cc(C#N)c(Oc2ccccc2Cl)cc1-n1c(=O)cc(C(F)(F)F)[nH]c1=O (single isomer, unassigned) [Example 17, 2-(2-Chlorophenoxy)-4-[2,6-dioxo-4-(trifluoromethyl)-3,6-dihydropyrimidin-1(2H)-yl]-5-methoxybenzonitrile (atrop 2)] | 19000 nM |  | 
COc1cc(C#N)c(Oc2ccccc2C)cc1-n1c(=O)cc(C(F)(F)C(F)(F)F)[nH]c1=O (racemic) [Example 51, 4-[2,6-Dioxo-4-(pentafluoroethyl)-3,6-dihydropyrimidin-1(2H)-yl]-5-methoxy-2-(2-methylphenoxy)benzonitrile (rac)] |  | 4330 nM | 
Cc1ccccc1Oc1cc(-n2c(=O)cc(C(F)(F)F)[nH]c2=O)c(Cl)cc1C#N (racemic) [Example 11, 5-Chloro-4-[2,6-dioxo-4-(trifluoromethyl)-3,6-dihydropyrimidin-1(2H)-yl]-2-(2-methylphenoxy)benzonitrile (rac)] |  | 2000 nM | 
Cc1ccccc1Oc1cc(-n2c(=O)cc(C(F)(F)F)[nH]c2=O)c(Cl)cc1C#N (single isomer, unassigned) [Example 13, 5-Chloro-4-[2,6-dioxo-4-(trifluoromethyl)-3,6-dihydropyrimidin-1(2H)-yl]-2-(2-methylphenoxy)benzonitrile (atrop 2)] |  | 2000 nM | 
